This assay deals with carrageenan-induced mechanical hyperalgesia. The experiment in a line: Carrageenan inflammatory pain model, Randall-Selitto paw-withdrawal test. The format is in vivo, rat. The note with it: for Mechanical hyperalgesia (PWT): FIG. 18. On the procedure:
The nociceptive flexior reflex was quantified on lightly restrained rats by using a Basile Analgesymeter (Randall-Selitto test). Inflammatory hyperlagesia was induced by injection of Carr (1%, 5 uL, i.d.), which was injected unilaterally to the dorsum of the hindpaw one-hour prior to compound administration. The εPKC inhibitor peptide (εV1-2) was injected via systemic routes.
The nociceptive flexior reflex was quantified on lightly restrained rats by using a Basile Analgesymeter (Randall-Selitto test). Inflammatory hyperlagesia was induced by injection of Carr (1%, 5 μL, i.d.), which was injected unilaterally to the dorsum of the hindpaw one-hr prior to compound administration. The εPKC inhibitor peptide (εV1-2) was injected via systemic routes.
The rat carrageenan model has been extensively used to evaluate the response to modulators of inflammatory pain. In the model used for the studies described below, a single 5 microL injection of a 1% solution of carrageenan into the plantar surface of the right hindpaw was used to elicit an inflammatory response resulting in local edema and mechanical hyperalgesia. The mechanical hyperalgesia was quantitated as previously described using measurements of the nociceptive flexion reflex (Randall-Selitto paw-withdrawal test) in response to mechanical painful stimulation at the site of carrageenan injection. […] In the absence of further treatment, the PWT remained stable at ˜55 g for several hours, making it possible to use this model to evaluate the time-course of the response to treatment over the course of at least six hours after the establishment of the disease state.

Take Ac-EAVSLKPTGGYGRKKRRQRRR-NH2 [KAI-1678]: the “Ability to reverse mechanical hyperalgesia in sympathectomized animals” value (25 mcg/kg/hr subcutaneous infusion, contralateral hindlimb, FIG. 24) is “abrogated”. Where the note is “25 mcg/kg/hr subcutaneous infusion, contralateral limb, proximal or distal to transection, FIG. 23”, the “Carrageenan-induced mechanical hyperalgesia after sciatic and saphenous nerve transection” value is listed as “effective at eliminating carrageenan-induced mechanical hyperalgesia when the site of compound administration was proximal, but not distal, to the site of nerve transection”. For the same substance, the Carrageenan-induced mechanical hyperalgesia entry (IV infusion, rates as high as 1000 mcg/kg/hr for as long as 5 hours, FIG. 22) was “had no effect on carrageenan-induced mechanical hyperalgesia”. Moreover, the “Mechanical hyperalgesia (PWT)” value is recorded as “completely reverse the mechanical hyperalgesia” (intradermal 10 mcg/kg, ipsilateral hindpaw); “completely reverse the mechanical hyperalgesia” (intradermal 10 or 100 mcg/kg, contralateral hindpaw); “increasing the PWT beyond the pre-carrageenan levels” (intradermal 100 mcg/kg, ipsilateral hindpaw). Besides, the “Time to complete reversal of mechanical hyperalgesia” value (intradermal 100 mcg/kg, ipsilateral) was not above 5 min. The “Lowest dose completely reversing mechanical hyperalgesia” value (subcutaneous bolus, contralateral hindlimb, for a short period) amounted to 0.1 µg/kg. Besides, the “Pain response (mechanical hyperalgesia)” value (subcutaneous bolus, thigh of contralateral hindlimb, FIG. 19) is “dose-dependent suppression in the pain response”. Also, the Reversal of pain result (subcutaneous infusion 250 mcg/kg/hr) was “rapid and sustained without any recurrence of hyperalgesia”. Moreover, the “Effect on mechanical hyperalgesia” value (subcutaneous infusion 25,000 mcg/kg/hr, data not shown) was “comparable to that seen with the 250 mcg/kg/hr infusion”. For the same substance, the “Mechanical hyperalgesia, first phase of subcutaneous infusion” value (subcutaneous infusion, first phase approximately one hour, FIG. 21) is “rapid and complete reversal of the mechanical hyperalgesia at all doses tested”. Moreover, the “Dose rate completely reversing mechanical hyperalgesia in second phase” value (subcutaneous infusion, second phase two to three hours after start) was not below 25 µg/kg/h.
